Data set [1] has as its system Escherichia coli (ATCC 11229). Kind of data set: Minimum Inhibitory Concentration test, bacteriostatic responses. Format: cell-based. Conditions: for Bacteriostatic response E. coli: triplicate; for Minimum Inhibitory Concentration E. coli: lowest concentration completely inhibiting growth in all three replicates. Here is the method: (§1) [table] [table] Add 0.1 ml of inoculum to each 20×150 mm test tube containing 9.0 ml of Nutrient or Sabouraud Dextrose Broth and 1 ml of a aqueous dilution of the test sample. Vortex tube to mix then incubate bacteria inoculated tubes at 36±1° C. for a minimum of 48±1 hour and fungi inoculated tubes at 28° C. for 7-10 days. Following incubation, observe tubes visually for the presence of growth (i.e. turbidity). Perform all testing in triplicate.

Data set [2] deals with Pseudomonas aeruginosa (ATCC 15442). Described as above. The class given is cell-based. Conditions: for Minimum Inhibitory Concentration P. aeruginosa: lowest concentration completely inhibiting growth in all three replicates; for Bacteriostatic response P. aeruginosa: triplicate. The procedure:
as §1

The subject of data set [3] is Staphylococcus aureus (ATCC 6538). Described as above. The class given is cell-based. The conditions noted are these: for Bacteriostatic response S. aureus: triplicate; for Minimum Inhibitory Concentration S. aureus: lowest concentration completely inhibiting growth in all three replicates. Here is the method: as §1
The test system of data set [4] is Aspergillus niger (ATCC 16404). Kind of data set: Minimum Inhibitory Concentration test, fungistatic responses. Format: cell-based. The conditions noted are these: for Fungistatic response A. niger: triplicate; for Minimum Inhibitory Concentration A. niger: lowest concentration completely inhibiting growth in all three replicates. The procedure:
as §1

The test system of data set [5] is Candida albicans (ATCC 10231). The description is as above. Format: cell-based. Conditions: for Fungistatic response C. albicans: triplicate; for Minimum Inhibitory Concentration C. albicans: lowest concentration completely inhibiting growth in all three replicates. The procedure:
as §1

Data set [6] is described as follows: Surface tension measurement. The class given is physicochemical. Conditions: 0.1% surfactant blend in water. The text has this:
(§2) In the following examples, all amounts are stated in percent by weight of active material unless indicated otherwise. Surface tension measurements, Draves wetting measurements, and Ross Miles foaming initial and final measurements all were taken at 0.1% concentration of the surfactant blend in water.

Data set [7] in a line: Draves wetting measurement. Format: physicochemical. Conditions: 0.1% in water.
Text: as §2

Data set [8] in a line: Ross Miles foaming, initial and final. Format: physicochemical. Conditions: 0.1% in water.
Text: as §2

The subject of data set [9] is Aspergillus niger (ATCC 6275). Kind of data set: Time-Kill. Format: cell-based. The conditions noted are these: 100 ppm active. The procedure:
(§3) Formulation 11-1 was prepared as described above and evaluated at two different concentrations against various microorganisms to determine the time required to kill certain levels of the microorganisms. Control formulation 11-2 was also tested in this assay at the same concentrations.
(§4) Preparation: Transfer each organism from stock slant to sterile Nutrient Broth (NB) tube. Incubate NB tubes at 36±1° C. After 24 hours incubation, subculture each broth culture to fresh tube of sterile NB. Repeat subculturing procedure at 24 hour intervals. Use cultures for testing after at least three consecutive 24 hour subculturings.
(§5) 2. Dispense 4.9 gram aliquots of each sample* into sterile medication tubes. Use one tube per organism. (*log10 reductions can be calculated by subtracting the log10 of the average inoculum count from the log10 of the test substance count after 30 seconds, 1 minute or 5 minutes contact)
(§6) 3. Centrifuge 18-24 hour broth culture of each test organism. Decant supernatant and re-suspend in equal volume of phosphate buffer. Re-centrifuge and re-suspend in phosphate buffer. Prepare 1:10 dilution of each culture suspension by adding 2 ml of culture to 18 ml of phosphate buffer. Mix by vortexing. Use this 1:10 dilution as the test inoculum.
(§7) 4. Perform initial plate count of the test inoculum by adding 0.1 ml of the inoculum to 4.9 grams of sterile distilled water. Vortex to mix, then remove 1 ml of solution and dilute in D/E Broth to 1:100,000. Plate 1:1,000, 1:10,000, and 1:100,000 dilutions in Microbial Content Agar (Difco).
(§8) 5. Begin testing of substances by adding 0.1 ml of test inoculum to sample tube. Vortex to mix. After 30 seconds, remove 1 ml of sample and add to 9 mls of DE broth, rinse pipette 5 times with sample and vortex. Remove additional 1 ml sample after 1 and 5 minutes contact and add to 9 mls of D/E Broth. Dilute each tube to 1:10,000 in D/E Broth and plate 1:1,000, 1:10,000, and 1:100,000 dilutions in Microbial Content Agar.
(§9) 7. After completion of step 6, perform final plate count of inoculum suspension by adding 0.1 ml of the suspension to 4.9 grams of sterile distilled water. Vortex to mix then remove 1 ml of solution and dilute in D/E Broth to 1:100,000. Plate 1:1,000, 1:10,000, and 1:100,000 dilutions in Microbial Content Agar (Difco).
(§10) 8. Incubate plates at 36±1° C. for 48 hours.
(§11) 9. Record all test results and calculate percent kills* after 30 seconds, 1 minute, and 5 minutes contact as follows: (*log10 reductions can be calculated by subtracting the log10 of the average inoculum count from the log10 of the test substance count after 30 seconds, 1 minute or 5 minutes contact) [formula]
(§12) X=Average of initial and final inoculum control counts, org/ml (Note: The difference between initial and final inoculum counts must be≦1 log for a valid study)
(§13) Y=Test substance bacterial count as org/ml after 30 seconds, 1 minute, or 5 minutes contact

For data set [10], the system named is Candida albicans (ATCC 10231). The data set is described as follows: Time-Kill. The conditions noted are these: 100 ppm active. The class given is cell-based. Here is the method: as §3, §4, §5, §6, §7, §8, §9, §10, §11, §12, §13
The subject of data set [11] is Escherichia coli (ATCC 11229). The data set is described as follows: Time-Kill. The class given is cell-based. Conditions: 100 ppm active. The procedure: as §3, §4, §5, §6, §7, §8, §9, §10, §11, §12, §13
Data set [12] relates to Staphylococcus aureus (ATCC 6538). Kind of data set: Time-Kill. The class given is cell-based. Conditions: 100 ppm active. Here is the method:
as §3, §4, §5, §6, §7, §8, §9, §10, §11, §12, §13

In the next data set the test system is Pa (ATCC 9027). The data set is described as follows: Time-Kill. The class given is cell-based, Pseudomonas aeruginosa. Conditions: 50 ppm active. Here is the method:
as §3, §4, §5, §6, §7, §8, §9, §10, §11, §12, §13

The subject of data set [13] is Psudomonas aeruginosa (ATCC 15442). The data set is described as follows: Time-Kill. Format: cell-based, Pseudomonas aeruginosa. Conditions: 100 ppm active. The procedure:
as §3, §4, §5, §6, §7, §8, §9, §10, §11, §12, §13

For `CCCCCCCCCCCC[N+](C)(C)[O-]` [AMMONYX-LO, Lauramine oxide], the “Bacteriostatic response E. coli” value in data set [1] (1000 ppm active) amounted to 000. Further, the “Minimum Inhibitory Concentration E. coli” value in data set [1] was 1000 ppm, active. In addition, the “Minimum Inhibitory Concentration P. aeruginosa” value in data set [2] is recorded as >1000 ppm, active. Moreover, the “Bacteriostatic response S. aureus” value in data set [3] (100 ppm active) and in data set [3] (1000 ppm active) was 000 throughout. Besides, the “Minimum Inhibitory Concentration S. aureus” value in [3] is 100 ppm, active. The “Fungistatic response A. niger” value in data set [4] (100 ppm active) and in [4] (1000 ppm active) was 000 each time. For the same compound, in data set [4], the “Minimum Inhibitory Concentration A. niger” value is 100 ppm, active. Further, the “Fungistatic response C. albicans” value in data set [5] (100 ppm active) and in data set [5] (1000 ppm active) was 000 each time. Besides, the “Minimum Inhibitory Concentration C. albicans” value in [5] is 100 ppm, active.

With `CCCCCCCCS(=O)(=O)[O-].[Na+]` [BIO-TERGE PAS-8S, Sodium 1-octane sulfonate], the “Minimum Inhibitory Concentration E. coli” value in data set [1] was >1000 ppm, active. In addition, the “Minimum Inhibitory Concentration P. aeruginosa” value in data set [2] was >1000 ppm, active. The “Minimum Inhibitory Concentration S. aureus” value in [3] is >1000 ppm, active. For the same compound, in data set [4], the “Minimum Inhibitory Concentration A. niger” value was >1000 ppm, active. Moreover, the “Minimum Inhibitory Concentration C. albicans” value in data set [5] is reported as >1000 ppm, active.

Consider `CCCCCCCCCC[N+](C)(C)C.[Cl-]` [QC10, Decyltrimethylammonium chloride], for which the “Surface Tension” value in [6] is given as 39.28 mN/m. The compound also registered a Wetting in [7] of 100 s. In data set [8], the “Foaming Final” value is reported as 0/0 cm and the “Foaming Initial” value is 0/0 cm.

With Cocamidopropyl betaine [Amphosol ® CA], in data set [6], the “Surface Tension” value is 36.75 mN/m. The compound further returned a Wetting in data set [7] of 100 s. Moreover, in [8], the “Foaming Final” value was 12.9 cm and the “Foaming Initial” value is listed as 13 cm.

Take “N-Alkyl dimethyl benzyl ammonium chloride [BTC 65NF]”: the “Bacteriostatic response E. coli” value in data set [1] (10 ppm active), in data set [1] (100 ppm active) and in [1] (1000 ppm active) was 000 each time. Also, the “Minimum Inhibitory Concentration E. coli” value in data set [1] is listed as 10 ppm, active. Moreover, the “Bacteriostatic response P. aeruginosa” value in [2] (100 ppm active) and in data set [2] (1000 ppm active) was 000 in each case. For the same compound, the “Minimum Inhibitory Concentration P. aeruginosa” value in data set [2] is 100 ppm, active. Moreover, the “Bacteriostatic response S. aureus” value in data set [3] (1 ppm active), in data set [3] (10 ppm active), in [3] (100 ppm active) and in data set [3] (1000 ppm active) was 000 throughout. Further, in [3], the “Minimum Inhibitory Concentration S. aureus” value is reported as <1 ppm, active. The “Fungistatic response A. niger” value in data set [4] (10 ppm active), in [4] (100 ppm active) and in [4] (1000 ppm active) was 000 throughout. Besides, the “Minimum Inhibitory Concentration A. niger” value in data set [4] is on record as 10 ppm, active. Besides, the “Fungistatic response C. albicans” value in [5] (10 ppm active), in data set [5] (100 ppm active) and in data set [5] (1000 ppm active) was 000 in each case. The “Minimum Inhibitory Concentration C. albicans” value in data set [5] is given as 10 ppm, active. Besides, the “Percent Kill An” value in data set [9] (5 Minutes contact) was found to be 92.3 % K; in [9] (30 Seconds contact), 0.0 % K; in [9] (60 Seconds contact), 22.5 % K. The “Percent Kill Ca” value in [10] (5 Minutes contact), in data set [10] (30 Seconds contact) and in data set [10] (60 Seconds contact) was over 99.7 % K each time. The “Percent Kill Ec” value in data set [11] (5 Minutes contact), in data set [11] (30 Seconds contact) and in data set [11] (60 Seconds contact) was over 99.9 % K in each case. Further, the “Percent Kill Sa” value in data set [12] (5 Minutes contact) is on record as over 99.8 % K; in data set [12] (30 Seconds contact), 65.5 % K; in [12] (60 Seconds contact), 83.6 % K. Besides, the “Percent Kill Pa (ATCC 9027)” value with Pa (ATCC 9027) (5 Minutes contact) is listed as over 99.9 % K; with Pa (ATCC 9027) (30 Seconds contact) it was 99.9 % K; in the data set on Pa (ATCC 9027) (60 Seconds contact), over 99.9 % K. The “Percent Kill Pa” value in [13] (5 Minutes contact), in data set [13] (30 Seconds contact) and in data set [13] (60 Seconds contact) was 99.9 % K throughout.

For the origin of these results see patent publication US20040071653A1, “Antimicrobial ternary surfactant blend comprising cationic, anionic, and bridging surfactants, and methods of preparing same” (Stepan Company, priority 2000, published 2004).
